# Patent publication US9393232B2 (BeiGene, Ltd., priority 2013, dated 2016)
# Read-outs that look alike come from different tables or passages of the source.
# Key:
# [1] = biological target: Recombinant human BRD4(1-477) (Homo sapiens (Human), UniProt O60885); test: BRD4 TR-FRET biochemical IC50 assay; type: binding; conditions: TR-FRET, tetra-acetylated histone peptide; read-out: BRD4 IC50
# [2] = system: MV4-11; test: MV4-11 (3 Days) EC50; type: cell-based
Compound,IC50 [1] [nM],"EC50 ([2]; Homo sapiens, MV4-11, 72 h) [nM]","EC50 ([2]; Homo sapiens, 72 h) [nM]",EC50 [2] [nM]
Cc1noc(C)c1-c1ccc2c(c1)C(C1CCCCC1)(N1CCNCC1)C(=O)N2 (stereo not shown) [Compound 2.39],76,365,–,–
"COC(=O)[C@@H]1C[C@@H](O)CN1C1(c2ccccc2)C(=O)Nc2ccc(-c3c(C)noc3C)cc21 (single isomer, unassigned) [Compound 2.50a]",460,681,–,–
"Cc1noc(C)c1-c1ccc2c(c1)C(NC[C@H](C)O)(c1ccccc1)C(=O)N2 (single isomer, unassigned) [Compound 2.14a]",78,115,–,–
"Cc1noc(C)c1-c1ccc2c(c1)C(NCCO)(C1CCCC1)C(=O)N2 (stereo not shown) [Compound 2.35, 3-cyclopentyl-5-(3,5-dimethylisoxazol-4-yl)-3-(2-hydroxyethylamino)indolin-2-one]",130,324,–,–
"Cc1noc(C)c1-c1ccc2c(c1)C(NC(=O)CN(C)C)(c1ccccc1)C(=O)N2 (stereo not shown) [Compound 6.0, 2-(Dimethylamino)-N-(5-(3,5-dimethylisoxazol-4-yl)-2-oxo-3-phenylindolin-3-yl)acetamide]",320,746,–,–
"Cc1noc(C)c1-c1ccc2c(c1)C(c1ccsc1)(N1CCC[C@H](N)C1)C(=O)N2 (single isomer, unassigned) [Compound 4.7b]",8,34,–,–
"Cc1noc(C)c1-c1ccc2c(c1)C(O)(c1ccc(Cl)cc1)C(=O)N2 (stereo not shown) [Compound 1.2, 3-(4-chlorophenyl)-5-(3,5-dimethylisoxazol-4-yl)-3-hydroxyindolin-2-one]",260,–,364,–
"Cc1noc(C)c1-c1ccc2c(c1)C(O)(C1CC1)C(=O)N2 (stereo not shown) [Compound 1.19, 3-cyclopropyl-5-(3,5-dimethylisoxazol-4-yl)-3-hydroxyindolin-2-one]",850,–,1960,–
"Cc1noc(C)c1-c1ccc2c(c1)C(Cl)(c1ccccc1)C(=O)N2 (stereo not shown) [Compound 1.31, 3-Chloro-5-(3,5-dimethylisoxazol-4-yl)-3-phenylindolin-2-one]",58,152,–,–
"Cc1noc(C)c1-c1ccc2c(c1)C(NC[C@H](C)O)(C1CCCCC1)C(=O)N2 (stereo partly drawn) [Compound 2.21, 3-cyclohexyl-5-(3,5-dimethylisoxazol-4-yl)-3-((S)-2-hydroxypropylamino)indolin-2-one]",88,–,–,270
"Cc1noc(C)c1-c1ccc2c(c1)C(CCO)(c1ccccc1)C(=O)N2 (stereo not shown) [Compound 3.5, 5-(3,5-Dimethylisoxazol-4-yl)-3-(2-hydroxyethyl)-3-phenylindolin-2-one]",120,140,–,–
"Cc1noc(C)c1-c1ccc2c(c1)C(CCCN1CCOCC1)(c1ccccc1)C(=O)N2 (stereo not shown) [Compound 3.6, 5-(3,5-dimethylisoxazol-4-yl)-3-(3-morpholinopropyl)-3-phenylindolin-2-one]",100,270,–,–
"Cc1noc(C)c1-c1ccc2c(c1)C(NC(C)C)(C1CCCCC1)C(=O)N2 (stereo not shown) [Compound 2.27, 3-cyclohexyl-5-(3,5-dimethylisoxazol-4-yl)-3-(isopropylamino)indolin-2-one]",85,833,–,–
"Cc1noc(C)c1-c1ccc2c(c1)C(O)(C1CCC1)C(=O)N2 (stereo not shown) [Compound 1.18, 3-cyclobutyl-5-(3,5-dimethylisoxazol-4-yl)-3-hydroxyindolin-2-one]",510,–,1140,–
"Cc1noc(C)c1-c1ccc2c(c1)C(N[C@H](C)CO)(C1CCCCC1)C(=O)N2 (stereo partly drawn) [Compound 2.24, 3-cyclohexyl-5-(3,5-dimethylisoxazol-4-yl)-3-((R)-1-hydroxypropan-2-ylamino)indolin-2-one]",75,349,–,–
Cc1noc(C)c1-c1ccc2c(c1)C(C1CCCCC1)(N1CCOCC1)C(=O)N2 (stereo not shown) [Compound 2.29],94,314,–,–
"Cc1noc(C)c1-c1ccc2c(c1)C(CCCO)(c1ccccc1)C(=O)N2 (stereo not shown) [Compound 3.2, 5-(3,5-dimethylisoxazol-4-yl)-3-(3-hydroxypropyl)-3-phenylindolin-2-one]",52,125,–,–
"Cc1noc(C)c1-c1ccc2c(c1)C(c1ccccc1)(N1CC(O)C1)C(=O)N2 (stereo not shown) [Compound 2.58, 5-(3,5-Dimethylisoxazol-4-yl)-3-(3-hydroxyazetidin-1-yl)-3-phenylindolin-2-one]",78,258,–,–
"Cc1noc(C)c1-c1ccc2c(c1)C(c1ccccc1)(N1CCCCC1)C(=O)N2 (stereo not shown) [Compound 2.3, 5-(3,5-dimethylisoxazol-4-yl)-3-phenyl-3-(piperidin-1-yl)indolin-2-one]",84,542,–,–
"Cc1noc(C)c1-c1ccc2c(c1)C(N[C@@H](C)CO)(C1CCCCC1)C(=O)N2 (stereo partly drawn) [Compound 2.23, 3-cyclohexyl-5-(3,5-dimethylisoxazol-4-yl)-3-((S)-1-hydroxypropan-2-ylamino)indolin-2-one]",160,371,–,–
"Cc1noc(C)c1-c1ccc2c(c1)C(CCCN(C)C)(c1ccccc1)C(=O)N2 (stereo not shown) [Compound 3.10, 3-(3-(Dimethylamino)propyl)-5-(3,5-dimethylisoxazol-4-yl)-3-phenylindolin-2-one]",140,490,–,–

Compound,IC50 [1] [nM],"EC50 ([2]; Homo sapiens, MV4-11, 72 h) [nM]","EC50 ([2]; Homo sapiens, 72 h) [nM]",EC50 [2] [nM]
"Cc1noc(C)c1-c1ccc2c(c1)C(O)(c1cccc(Cl)c1)C(=O)N2 (stereo not shown) [Compound 1.3, 3-(3-chlorophenyl)-5-(3,5-dimethylisoxazol-4-yl)-3-hydroxyindolin-2-one]",380,–,369,–
"Cc1ccsc1C1(O)C(=O)Nc2ccc(-c3c(C)noc3C)cc21 (stereo not shown) [Compound 1.13, 5-(3,5-dimethylisoxazol-4-yl)-3-hydroxy-3-(3-methylthiophen-2-yl)indolin-2-one]",560,–,746,–
"Cc1noc(C)c1-c1ccc2c(c1)C(N[C@H](CO)C(C)C)(c1ccccc1)C(=O)N2 (single isomer, unassigned) [Compound 2.12a]",89,144,–,–
"Cc1noc(C)c1-c1ccc2c(c1)C(NCCN(C)C)(C1CCCCC1)C(=O)N2 (stereo not shown) [Compound 2.28, 3-cyclohexyl-3-(2-(dimethylamino)ethylamino)-5-(3,5-dimethylisoxazol-4-yl)indolin-2-one]",140,539,–,–
"Cc1noc(C)c1-c1ccc2c(c1)C(c1ccccc1)(N1CCOCC1)C(=O)N2 (stereo not shown) [Compound 2.6, 5-(3,5-dimethylisoxazol-4-yl)-3-morpholino-3-phenylindolin-2-one]",63,179,–,–
"Cc1noc(C)c1-c1ccc2c(c1)C(c1ccsc1)(N1CCC[C@H](N)C1)C(=O)N2 (single isomer, unassigned) [Compound 4.7a]",24,35,–,–
"Cc1noc(C)c1-c1ccc2c(c1)C(O)(c1ccccc1)C(=O)N2 (stereo not shown) [Compound 1.1, 5-(3,5-dimethylisoxazol-4-yl)-3-hydroxy-3-phenylindolin-2-one]",51,–,124,–
"Cc1noc(C)c1-c1ccc2c(c1)C(N[C@@H](CO)C(C)C)(C1CCCCC1)C(=O)N2 (single isomer, unassigned) [Compound 2.20b]",350,377,–,–
"Cc1noc(C)c1-c1ccc2c(c1)C(NC[C@@H](C)O)(c1ccccc1)C(=O)N2 (single isomer, unassigned) [Compound 2.13b]",81,140,–,–
"Cc1noc(C)c1-c1ccc2c(c1)C(O)(c1ccccc1)C(=O)N2 (single isomer, unassigned) [Compound 1.1a, 5-(3,5-dimethylisoxazol-4-yl)-3-hydroxy-3-phenylindolin-2-one]",35,–,58,–
"Cc1noc(C)c1-c1ccc2c(c1)C(C1CCCC1)(N1CCNCC1)C(=O)N2 (stereo not shown) [Compound 2.40, 3-Cyclopentyl-5-(3,5-dimethylisoxazol-4-yl)-3-(piperazin-1-yl)indolin-2-one]",150,555,–,–
"Cc1noc(C)c1-c1ccc2c(c1)C(O)(C1CCCC1)C(=O)N2 (stereo not shown) [Compound 1.17, 3-cyclopentyl-5-(3,5-dimethylisoxazol-4-yl)-3-hydroxyindolin-2-one]",270,–,671,–
"Cc1noc(C)c1-c1ccc2c(c1)C(c1ccccc1)C(=O)N2 (stereo not shown) [Compound 3.1, 5-(3,5-Dimethylisoxazol-4-yl)-3-phenylindolin-2-one]",110,382,–,–
"Cc1noc(C)c1-c1ccc2c(c1)C(NCCO)(C1CCCCC1)C(=O)N2 (stereo not shown) [Compound 2.18, 3-cyclohexyl-5-(3,5-dimethylisoxazol-4-yl)-3-(2-hydroxyethylamino)indolin-2-one]",85,204,–,–
"Cc1noc(C)c1-c1ccc2c(c1)C(O)(c1ccc(F)cc1)C(=O)N2 (stereo not shown) [Compound 1.4, 5-(3,5-dimethylisoxazol-4-yl)-3-(4-fluorophenyl)-3-hydroxyindolin-2-one]",100,–,181,–
"Cc1noc(C)c1-c1ccc2c(c1)C(CCCN1CCNCC1)(c1ccccc1)C(=O)N2 (stereo not shown) [Compound 3.8, 5-(3,5-Dimethylisoxazol-4-yl)-3-phenyl-3-(3-(piperazin-1-yl)propyl)indolin-2-one]",51,62,–,–
"Cc1noc(C)c1-c1ccc2c(c1)C(c1ccccc1)(N1CCN(C)CC1)C(=O)N2 (stereo not shown) [Compound 2.5, 5-(3,5-dimethylisoxazol-4-yl)-3-(4-methylpiperazin-1-yl)-3-phenylindolin-2-one]",110,420,–,–
"Cc1noc(C)c1-c1ccc2c(c1)C(CCCN1CCC(O)CC1)(c1ccccc1)C(=O)N2 (stereo not shown) [Compound 3.9, 5-(3,5-Dimethylisoxazol-4-yl)-3-(3-(4-hydroxypiperidin-1-yl)propyl)-3-phenylindolin-2-one]",120,377,–,–
"CC#CC1(O)C(=O)Nc2ccc(-c3c(C)noc3C)cc21 (stereo not shown) [Compound 1.22, 5-(3,5-dimethylisoxazol-4-yl)-3-hydroxy-3-(prop-1-ynyl)indolin-2-one]",220,478,–,–
"Cc1cc(C2(O)C(=O)Nc3ccc(-c4c(C)noc4C)cc32)ccc1F (stereo not shown) [Compound 1.6, 5-(3,5-dimethylisoxazol-4-yl)-3-(4-fluoro-3-methylphenyl)-3-hydroxyindolin-2-one]",380,–,594,–
